MIC and MBC data for 5 compounds are collected here from patent US11691949B2, “Quinoline sulfonamide compounds and their use as antibacterial agents” (OTAGO INNOVATION LIMITED, priority 2017, dated 2023).

Each structure is given as a SMILES string. Converted amounts (≈) assume the structure as drawn. Read-outs that look alike come from different tables or passages of the source. Bounds are passed on as bounds.

Holding throughout (type): cell-based
Assay [1] deals with S. uberis ATCC 19436. In words: MIC by broth microdilution, S. uberis. Particulars: Streptococcus uberis, read-out: S. uberis ATCC 19436 MIC. A digest of the protocol: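 The MIC against S. uberis ATCC 19436 was the lowest compound concentration showing no growth by OD600 after 24 h at 37° C. with 200 rpm shaking. Cultures grown overnight were adjusted to OD600 ~0.025 so wells held approximately 5×10^5 cfu/mL in THB. Two-fold dilution series were made at a final volume of 200 μl. Media and untreated controls were run in triplicate on each plate.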

Assay [2] has as its system S. aureus ATCC 6538. The experiment in a line: MIC by broth microdilution, S. aureus. Particulars: Staphylococcus aureus, read-out: S. aureus ATCC 6538 MIC. A digest of the protocol: (§1)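 Media: TSB or CAMHB for S. aureus, LB or CAMHB for E. coli, with zinc sulphate to 50 μM final where required. Cells at ~5×10^5 cfu/mL met two-fold compound series; growth was scored by OD600 after 24 h shaking at 37° C.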

In assay [3] the test system is E. coli ATCC 10596. In words: MIC by broth microdilution, E. coli. The settings on record: Escherichia coli, read-out: E. coli ATCC 10536 MIC. A digest of the protocol: as §1
Assay [4] relates to S. uberis ATCC 19436. In words: MBC by Miles-Misra drop-plate method, S. uberis. Particulars: Streptococcus uberis, read-out: S. uberis ATCC 19436 MBC.
In assay [5] the test system is S. aureus ATCC 6538. In words: MBC by Miles-Misra drop-plate method, S. aureus. The settings on record: Staphylococcus aureus, read-out: S. aureus ATCC 6538 MBC. The method in brief:
(§2)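 MBC measured as cell viability after compound challenge by Miles-Misra drop plating. MIC: broth microdilution at ~5×10^5 cfu/mL final (S. aureus: TSB, CAMHB; E. coli: LB, CAMHB; optional 50 μM zinc sulphate), 24 h at 37° C, 200 rpm, lowest concentration without growth by OD600; biological triplicate.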

For assay [6], the system named is E. coli ATCC 10536. The experiment in a line: MBC by Miles-Misra drop-plate method, E. coli. Particulars: Escherichia coli, read-out: E. coli ATCC 10536 MBC. A digest of the protocol:
as §2

[7] abbreviates: ATCC 10536 / ATCC 10596, No Zinc.
Setting [8] is: ATCC 10536 / ATCC 10596, Zinc (50 μM).

With `O=S(=O)(Nc1cccc2ccc(/C=N/O)nc12)c1ccc(C(F)(F)F)cc1` [ZDR125, (E)-N-(2-((Hydroxyimino)methyl)quinolin-8-yl)-4-(trifluoromethyl)benzenesulfonamide], the MIC in assay [1] (ATCC19436, No Zinc) is 8 µg/mL (≈ 20.2 µM); in assay [1] (ATCC19436, Zinc (50 μM)), 0.125 µg/mL (≈ 0.316 µM); in assay [2] (ATCC6538, No Zinc), 4 µg/mL (≈ 10.1 µM); in assay [2] (ATCC6538, Zinc (50 μM)), 4 µg/mL (≈ 10.1 µM); in assay [3] (setting [7]) it was more than 256 µg/mL; in assay [3] (setting [8]) it was more than 256 µg/mL. Moreover, the MBC in assay [4] (ATCC19436, No Zinc) was 8 µg/mL (≈ 20.2 µM); in assay [4] (ATCC19436, Zinc (50 μM)) it was 0.5 µg/mL (≈ 1.26 µM); in assay [5] (ATCC6538, No Zinc) it was more than 256 µg/mL; in assay [5] (ATCC6538, Zinc (50 μM)), more than 256 µg/mL; in assay [6] (ATCC10536, No Zinc), more than 256 µg/mL; in assay [6] (ATCC10536, Zinc (50 μM)) it was more than 256 µg/mL.

For `O=C(N/N=C/c1ccc2cccc(NS(=O)(=O)c3ccc(C(F)(F)F)cc3)c2n1)c1ccncc1` [ZDR122, (E)-N-(2-((2-Isonicotinoylhydrazneylidene)methyl)quinolin-8-yl)-4-(trifluoromethyl)benzenesulfonamide], the MIC is 32 µg/mL (≈ 64.1 µM) in assay [1] (ATCC19436, No Zinc); 2 µg/mL (≈ 4 µM) in assay [1] (ATCC19436, Zinc (50 μM)); 16 µg/mL (≈ 32 µM) in assay [2] (ATCC6538, No Zinc); 16 µg/mL (≈ 32 µM) in assay [2] (ATCC6538, Zinc (50 μM)); more than 256 µg/mL in assay [3] (setting [7]); more than 256 µg/mL in assay [3] (setting [8]). Also, the MBC in assay [4] (ATCC19436, No Zinc) is 128 µg/mL (≈ 256 µM); in assay [4] (ATCC19436, Zinc (50 μM)), 32 µg/mL (≈ 64.1 µM); in assay [5] (ATCC6538, No Zinc) it was 32 µg/mL (≈ 64.1 µM); in assay [5] (ATCC6538, Zinc (50 μM)) it was 128 µg/mL (≈ 256 µM); in assay [6] (ATCC10536, No Zinc), more than 256 µg/mL; in assay [6] (ATCC10536, Zinc (50 μM)) it was more than 256 µg/mL.

On to `O=S(=O)(Nc1cccc2ccc(CNc3ccccc3O)nc12)c1ccc(C(F)(F)F)cc1` [ZDR171, N-(2-(((2-Hydroxyphenyl)amino)methyl)quinolin-8-yl)-4-(trifluoromethyl)benzenesulfonamide], for which the minimal inhibitory concentration (MIC) in assay [1] (ATCC19436, No Zinc) is 8 µg/mL (≈ 16.9 µM); in assay [1] (ATCC19436, Zinc (50 μM)), 0.5 µg/mL (≈ 1.06 µM); in assay [2] (ATCC6538, No Zinc), 4 µg/mL (≈ 8.45 µM); in assay [2] (ATCC6538, Zinc (50 μM)), 4 µg/mL (≈ 8.45 µM); in assay [3] (setting [7]), more than 256 µg/mL; in assay [3] (setting [8]), more than 256 µg/mL. The MBC in assay [4] (ATCC19436, No Zinc) is 8 µg/mL (≈ 16.9 µM); in assay [4] (ATCC19436, Zinc (50 μM)), 0.5 µg/mL (≈ 1.06 µM); in assay [5] (ATCC6538, No Zinc) it was 16 µg/mL (≈ 33.8 µM); in assay [5] (ATCC6538, Zinc (50 μM)), 32 µg/mL (≈ 67.6 µM); in assay [6] (ATCC10536, No Zinc), more than 256 µg/mL; in assay [6] (ATCC10536, Zinc (50 μM)), more than 256 µg/mL.

In the case of `CN(C)Cc1ccc2cccc(NS(=O)(=O)c3ccc(C(F)(F)F)cc3)c2n1.Cl` [ZDR022-HCl, N-(2-((Dimethylamino)methyl)quinolin-8-yl)-4-(trifluoromethyl)-benzenesulfonamide HCl], the MIC in assay [1] (ATCC19436, No Zinc) was 256 µg/mL; in assay [1] (ATCC19436, Zinc (50 μM)) it was 0.125 µg/mL; in assay [2] (ATCC6538, No Zinc), 64 µg/mL; in assay [2] (ATCC6538, Zinc (50 μM)) it was 4 µg/mL; in assay [3] (setting [7]), more than 256 µg/mL; in assay [3] (setting [8]) it was more than 256 µg/mL. Moreover, the MBC in assay [4] (ATCC19436, No Zinc) is more than 256 µg/mL; in assay [4] (ATCC19436, Zinc (50 μM)), 0.125 µg/mL; in assay [5] (ATCC6538, No Zinc), 128 µg/mL; in assay [5] (ATCC6538, Zinc (50 μM)) it was 256 µg/mL; in assay [6] (ATCC10536, No Zinc) it was more than 256 µg/mL; in assay [6] (ATCC10536, Zinc (50 μM)) it was more than 256 µg/mL.

For `CN(C)Cc1ccc2cccc(NS(=O)(=O)c3ccc(Cl)cc3Cl)c2n1` [ZDR335, 2,4-Dichloro-N-(2-((dimethylamino)methyl)quinolin-8-yl)benzenesulfonamide], the MIC in assay [1] (ATCC19436, No Zinc) was 64 µg/mL (≈ 156 µM); in assay [1] (ATCC19436, Zinc (50 μM)), 0.0312 µg/mL (≈ 0.076 µM); in assay [2] (ATCC6538, No Zinc) it was 32 µg/mL (≈ 78 µM); in assay [2] (ATCC6538, Zinc (50 μM)) it was 8 µg/mL (≈ 19.5 µM); in assay [3] (setting [7]) it was more than 256 µg/mL; in assay [3] (setting [8]), more than 256 µg/mL. Besides, the MBC in assay [4] (ATCC19436, No Zinc) is 64 µg/mL (≈ 156 µM); in assay [4] (ATCC19436, Zinc (50 μM)), 2 µg/mL (≈ 4.87 µM); in assay [5] (ATCC6538, No Zinc), more than 256 µg/mL; in assay [5] (ATCC6538, Zinc (50 μM)), more than 256 µg/mL; in assay [6] (ATCC10536, No Zinc), more than 256 µg/mL; in assay [6] (ATCC10536, Zinc (50 μM)), more than 256 µg/mL.
